# From US20230063462A1, “SULFONIMIDAMIDE COMPOUNDS AND COMPOSITIONS FOR TREATING CONDITIONS ASSOCIATED WITH NLRP ACTIVITY” (NOVARTIS AG, priority 2019, published 2023)
# Test system: THP-1 cells
# Test: hTHP-1 assay: gramicidin-stimulated IL-1β detection in PMA-treated THP-1 cells
# Assay type: cell-based, human
# Details: Table B2, 10% FBS
SMILES,IC50 (class symbol) [µM],IC50 (numeric value) [µM]
"NS(=O)(=NC(=O)Nc1c2c(nc(C3CC3)c1C1CC1)CCC2)c1nn(C2CC2)cc1F (single isomer, unassigned) [Example 883, (S) or (R)-1-cyclopropyl-N′-((2,3-dicyclopropyl-6,7-dihydro-5H-cyclopenta[b]pyridin-4-yl)carbamoyl)-4-fluoro-1H-pyrazole-3-sulfonimidamide]",1 to 5,1.25
"NS(=O)(=NC(=O)Nc1c2c(nc3c1CCC31CC1)CCC2)c1ccn(C2CC2)n1 (single isomer, unassigned) [Example 884, (R) or (S)-1-cyclopropyl-N′-((1′,5′,6′,7′-tetrahydro-2′H-spiro[cyclopropane-1,3′-dicyclopenta[b,e]pyridin]-8′-yl)carbamoyl)-1H-pyrazole-3-sulfonimidamide]",0.04 to 0.2,0.0533
"NS(=O)(=NC(=O)Nc1c2c(nc3c1CCC31CC1)CCC2)c1ccn(C2CC2)n1 (single isomer, unassigned) [Example 885, (S) or (R)-1-cyclopropyl-N′-((1′,5′,6′,7′-tetrahydro-2′H-spiro[cyclopropane-1,3′-dicyclopenta[b,e]pyridin]-8′-yl)carbamoyl)-1H-pyrazole-3-sulfonimidamide]",1 to 5,2.26
"NS(=O)(=NC(=O)Nc1c2c(nc3c1CCC3)CCC2)c1ccn(C2CC2)n1 (single isomer, unassigned) [Example 886, (R) or (S)-1-cyclopropyl-N′-((1,2,3,5,6,7-hexahydrodicyclopenta [b,e]pyridin-8-yl)carbamoyl)-1H-pyrazole-3-sulfonimidamide]",0.2 to 1,0.27
"NS(=O)(=NC(=O)Nc1c2c(nc3c1CCC3)CCC2)c1ccn(C2CC2)n1 (single isomer, unassigned) [Example 887, (S) or (R)-1-cyclopropyl-N′-((1,2,3,5,6,7-hexahydrodicyclopenta [b,e]pyridin-8-yl)carbamoyl)-1H-pyrazole-3-sulfonimidamide]",5 to 30,5.88
"C[C@@H]1CCc2c1nc1c(c2NC(=O)N=S(N)(=O)c2ccn(C3CC3)n2)CCC1 (single isomer, unassigned) [Example 888, (R) or (S)-1-cyclopropyl-N′-(((R)-3-methyl-1,2,3,5,6,7-hexahydrodicyclopenta [b,e]pyridin-8-yl)carbamoyl)-1H-pyrazole-3-sulfonimidamide]",0.04 to 0.2,0.0494
"C[C@@H]1CCc2c1nc1c(c2NC(=O)N=S(N)(=O)c2ccn(C3CC3)n2)CCC1 (single isomer, unassigned) [Example 889, (S) or (R)-1-cyclopropyl-N′-(((R)-3-methyl-1,2,3,5,6,7-hexahydrodicyclopenta [b,e]pyridin-8-yl)carbamoyl)-1H-pyrazole-3-sulfonimidamide]",1 to 5,1.67

# Second part, the compound after the results:
IC50 (class symbol) [µM],IC50 (numeric value) [µM],SMILES
0.04 to 0.2,0.108,"Cc1c(C(F)(F)F)nc2c(c1NC(=O)N=S(N)(=O)c1ccn(C3CC3)n1)CCC2 (single isomer, unassigned) [Example 890, (R) or (S)-1-cyclopropyl-N′-((3-methyl-2-(trifluoromethyl)-6,7-dihydro-5H-cyclopenta [b]pyridin-4-yl)carbamoyl)-1H-pyrazole-3-sulfonimidamide]"
5 to 30,6.51,"Cc1c(C(F)(F)F)nc2c(c1NC(=O)N=S(N)(=O)c1ccn(C3CC3)n1)CCC2 (single isomer, unassigned) [Example 891, (S) or (R)-1-cyclopropyl-N′-((3-methyl-2-(trifluoromethyl)-6,7-dihydro-5H-cyclopenta [b]pyridin-4-yl)carbamoyl)-1H-pyrazole-3-sulfonimidamide]"
0.008 to 0.04,0.0127,"C[C@@H](O)Cn1cc(F)c(S(N)(=O)=NC(=O)Nc2c3c(nc4c2CCC42CC2)CCC3)n1 (single isomer, unassigned) [Example 892, (R) or (S)-4-fluoro-1-((R)-2-hydroxypropyl)-N′-((1′,5′,6′,7′-tetrahydro-2′H-spiro [cyclopropane-1,3′-dicyclopenta[b,e]pyridin]-8′-yl)carbamoyl)-1H-pyrazole-3-sulfonimidamide]"
0.2 to 1,0.679,"C[C@@H](O)Cn1cc(F)c(S(N)(=O)=NC(=O)Nc2c3c(nc4c2CCC42CC2)CCC3)n1 (single isomer, unassigned) [Example 893, (S) or (R)-4-fluoro-1-((R)-2-hydroxypropyl)-N′-((1′,5′,6′,7′-tetrahydro-2′H-spiro [cyclopropane-1,3′-dicyclopenta[b,e]pyridin]-8′-yl)carbamoyl)-1H-pyrazole-3-sulfonimidamide]"
0.008 to 0.04,0.0136,"C[C@H](O)Cn1cc(F)c(S(N)(=O)=NC(=O)Nc2c3c(nc4c2CCC42CC2)CCC3)n1 (single isomer, unassigned) [Example 896, (R) or (S)-4-fluoro-1-((S)-2-hydroxypropyl)-N′-((1′,5′,6′,7′-tetrahydro-2′H-spiro [cyclopropane-1,3′-dicyclopenta[b,e]pyridin]-8′-yl)carbamoyl)-1H-pyrazole-3-sulfonimidamide]"
0.2 to 1,0.31,"C[C@H](O)Cn1cc(F)c(S(N)(=O)=NC(=O)Nc2c3c(nc4c2CCC42CC2)CCC3)n1 (single isomer, unassigned) [Example 897, (S) or (R)-4-fluoro-1-((S)-2-hydroxypropyl)-N′-((1′,5′,6′,7′-tetrahydro-2′H-spiro [cyclopropane-1,3′-dicyclopenta[b,e]pyridin]-8′-yl)carbamoyl)-1H-pyrazole-3-sulfonimidamide]"
